Laboratory results reported in patent US20140120060A1, “TREATMENT OF RHEUMATOID ARTHRITIS AND ASTHMA USING PI3 KINASE INHIBITORS” (INFINITY PHARMACEUTICALS, INC., priority 2012, published 2014).

Tested on: B cell
Experiment: B cell proliferation
Type: cell-based

| SMILES | EC50 [nM] |
| --- | --- |
| Cc1ccccc1-n1c(Cn2nc(C#C[C@H](C)O)c3c(N)ncnc32)cc2cccc(C)c2c1=O [Compound 85] | < 1000 |
| Cc1cccc2cc(Cn3nc(I)c4c(N)ncnc43)n(C3CC3)c(=O)c12 [Compound 86] | < 1000 |
| Cc1cccc2cc(Cn3nc(I)c4c(N)ncnc43)n(C3CCCCC3)c(=O)c12 [Compound 87] | < 10000 |
| CCc1ccccc1-n1c(Cn2nc(-c3cccc(O)c3)c3c(N)ncnc32)cc2cccc(C)c2c1=O [Compound 88] | < 100 |
| CCc1ccccc1-n1c(Cn2nc(-c3cc(O)cc(F)c3)c3c(N)ncnc32)cc2cccc(C)c2c1=O [Compound 89] | < 100 |
| Cc1cccc2cc(Cn3nc(-c4cc(O)cc(F)c4)c4c(N)ncnc43)n(-c3ccccc3O)c(=O)c12 [Compound 90] | < 100 |
| Cc1cccc2cc(Cn3nc(C#C[C@@H](C)O)c4c(N)ncnc43)n(-c3ccccc3O)c(=O)c12 [Compound 91] | < 1000 |
| Cc1cccnc1-n1c(Cn2nc(-c3cc(O)cc(F)c3)c3c(N)ncnc32)cc2ccccc2c1=O [Compound 93] | < 100 |
| Cc1cccc2cc(Cn3nc(-c4cc(O)cc(F)c4)c4c(N)ncnc43)n(-c3ccccc3C(C)C)c(=O)c12 [Compound 95] | < 100 |
| Cc1cccc2cc(Cn3nc(-c4cccc(O)c4)c4c(N)ncnc43)n(-c3ccccc3Cl)c(=O)c12 [Compound 96] | < 100 |
| Cc1cccc2cc(Cn3nc(-c4cc(O)cc(F)c4)c4c(N)ncnc43)n(-c3ccccc3Cl)c(=O)c12 [Compound 97] | < 100 |
| Cc1cccc2cc(Cn3nc(C#C[C@@H](C)O)c4c(N)ncnc43)n(-c3ccccc3Cl)c(=O)c12 [Compound 98] | < 1000 |
| CCc1ccccc1-n1c(Cn2nc(C#C[C@@H](C)O)c3c(N)ncnc32)cc2cccc(C)c2c1=O [Compound 99] | < 100 |
| Cc1cccc2cc(Cn3nc(C#C[C@@H](C)O)c4c(N)ncnc43)n(C3CC3)c(=O)c12 [Compound 100] | < 1000 |
| Cc1cccc2cc(Cn3nc(-c4cc(O)cc(F)c4)c4c(N)ncnc43)n(C3CC3)c(=O)c12 [Compound 101] | < 100 |
| Cc1cccc2cc(Cn3nc(-c4cccc(O)c4)c4c(N)ncnc43)n(C3CC3)c(=O)c12 [Compound 102] | < 100 |
| Cc1cccc2cc(Cn3nc(I)c4c(N)ncnc43)n(-c3ccccc3OCCN3CCOCC3)c(=O)c12 [Compound 103] | < 1000 |
| Cc1cccc2cc(Cn3nc(I)c4c(N)ncnc43)n(C3CCC3)c(=O)c12 [Compound 105] | < 1000 |
| COc1cccc(-c2nn(Cc3cc4cccc(C)c4c(=O)n3-c3ccccc3C)c3ncnc(N)c23)c1 [Compound 106] | < 1000 |
| Cc1cccc2cc(Cn3nc(I)c4c(N)ncnc43)n(C)c(=O)c12 [Compound 107] | < 1000 |
| Cc1cccc2cc(Cn3nc(-c4cc(O)cc(F)c4)c4c(N)ncnc43)n(-c3ccccc3OCCN3CCOCC3)c(=O)c12 [Compound 108] | < 100 |
| Cc1cccc2cc(Cn3nc(-c4cccc(O)c4)c4c(N)ncnc43)n(-c3ccccc3OCCN3CCOCC3)c(=O)c12 [Compound 109] | < 100 |
| Cc1cccc2cc(Cn3nc(-c4cc(O)cc(F)c4)c4c(N)ncnc43)n(C3CCCCC3)c(=O)c12 [Compound 110] | < 1000 |
| Cc1cccc2cc(Cn3nc(-c4cccc(O)c4)c4c(N)ncnc43)n(C3CCCCC3)c(=O)c12 [Compound 111] | < 1000 |
| Cc1cccc2cc(Cn3nc(C#C[C@@H](C)O)c4c(N)ncnc43)n(C3CCCCC3)c(=O)c12 [Compound 112] | < 10000 |

| SMILES | EC50 [nM] |
| --- | --- |
| Cc1cccc2cc(Cn3nc(-c4cccc(O)c4)c4c(N)ncnc43)n(C3CCC3)c(=O)c12 [Compound 114] | < 1000 |
| Cc1cccc2cc(Cn3nc(-c4cc(O)cc(F)c4)c4c(N)ncnc43)n(C3CCC3)c(=O)c12 [Compound 115] | < 100 |
| Cc1ccccc1-n1c(Cn2nc(-c3cccc(O)c3)c3c(N)nccc32)cc2cccc(C)c2c1=O [Compound 119] | < 1000 |
| Cc1cccc2cc(Cn3nc(-c4ccc(Cl)c(O)c4)c4c(N)ncnc43)n(C(C)C)c(=O)c12 [Compound 123] | < 100 |
| Cc1cccc2cc(Cn3nc(-c4cccc(O)c4)c4c(N)ncnc43)n(C)c(=O)c12 [Compound 124] | < 1000 |
| Cc1cccc2cc(Cn3nc(-c4cc(O)cc(F)c4)c4c(N)ncnc43)n(C)c(=O)c12 [Compound 125] | < 100 |
| CCn1c(Cn2nc(-c3cccc(O)c3)c3c(N)ncnc32)cc2cccc(C)c2c1=O [Compound 126] | < 100 |
| Cc1cccc2cc(Cn3nc(-c4cc(O)cc(F)c4)c4c(N)ncnc43)n(C3CCOCC3)c(=O)c12 [Compound 128] | < 100 |
| CC(C)n1c(Cn2nc(-c3cccc(O)c3)c3c(N)ncnc32)cc2cccc(F)c2c1=O [Compound 133] | < 1000 |
| CC(C)n1c(Cn2nc(-c3cc(O)cc(F)c3)c3c(N)ncnc32)cc2cccc(F)c2c1=O [Compound 134] | < 100 |
| CC(C)n1c(Cn2nc(-c3cccc(O)c3)c3c(N)ncnc32)cc2ccccc2c1=O [Compound 135] | < 1000 |
| CC(C)n1c(Cn2nc(-c3cc(O)cc(F)c3)c3c(N)ncnc32)cc2ccccc2c1=O [Compound 136] | < 100 |
| CC(C)n1c(Cn2nc(-c3cccc(O)c3)c3c(N)ncnc32)cc2cccc(Cl)c2c1=O [Compound 137] | < 100 |
| CC(C)n1c(Cn2nc(-c3cc(O)cc(F)c3)c3c(N)ncnc32)cc2cccc(Cl)c2c1=O [Compound 138] | < 100 |
| Nc1ncnc2c1c(I)nn2Cc1cc2cccc(Cl)c2c(=O)n1C1CC1 [Compound 139] | < 100 |
| Nc1ncnc2c1c(-c1cccc(O)c1)nn2Cc1cc2cccc(Cl)c2c(=O)n1C1CC1 [Compound 141] | < 100 |
| Nc1ncnc2c1c(-c1cc(O)cc(F)c1)nn2Cc1cc2cccc(Cl)c2c(=O)n1C1CC1 [Compound 142] | < 100 |
| Nc1ncnc2c1c(-c1cc(O)cc(F)c1)nn2Cc1cc2cccc(F)c2c(=O)n1-c1ccccc1F [Compound 144] | < 100 |
| Cc1ccccc1-n1c(Cn2nc(-c3ccc4nc(N)sc4c3)c3c(N)ncnc32)cc2cccc(C)c2c1=O [Compound 145] | < 1000 |
| Cc1cccc2cc(Cn3nc(-c4cccc(O)c4)c4c(N)ncnc43)n(-c3ccccc3)c(=O)c12 [Compound 146] | < 100 |
| Cc1cccc2cc(Cn3nc(-c4cc(O)cc(F)c4)c4c(N)ncnc43)n(-c3ccccc3)c(=O)c12 [Compound 147] | < 100 |
| CNC(=O)Nc1nc2ccc(-c3nn(Cc4cc5cccc(C)c5c(=O)n4-c4ccccc4C)c4ncnc(N)c34)cc2s1 [Compound 148] | < 100 |
| Cc1ccccc1-n1c(Cn2nc(-c3ccc4nc(N)ccc4c3)c3c(N)ncnc32)cc2cccc(C)c2c1=O [Compound 149] | < 100 |
| Cc1ccccc1-n1c(Cn2nc(-c3ccc4nc(N)ncc4c3)c3c(N)ncnc32)cc2cccc(C)c2c1=O [Compound 150] | < 100 |
| Cc1ccccc1-n1c(Cn2nc(-c3ccc4oc(N)nc4c3)c3c(N)ncnc32)cc2cccc(C)c2c1=O [Compound 151] | < 100 |

| SMILES | EC50 [nM] |
| --- | --- |
| Cc1ccccc1-n1c(Cn2nc(-c3ccc4ncnc(N)c4c3)c3c(N)ncnc32)cc2cccc(C)c2c1=O [Compound 152] | < 1000 |
| CC(=O)Nc1nc2ccc(-c3nn(Cc4cc5cccc(C)c5c(=O)n4C)c4ncnc(N)c34)cc2s1 [Compound 153] | < 100 |
| CC(=O)Nc1nc2ccc(-c3nn(Cc4cc5cccc(C)c5c(=O)n4C(C)C)c4ncnc(N)c34)cc2s1 [Compound 154] | < 100 |
| CC(=O)Nc1nc2ccc(-c3nn(Cc4cc5cccc(C)c5c(=O)n4C4CC4)c4ncnc(N)c34)cc2s1 [Compound 155] | < 100 |
| CC(=O)Nc1nc2ccc(-c3nn(Cc4cc5cccc(Cl)c5c(=O)n4C4CC4)c4ncnc(N)c34)cc2s1 [Compound 156] | < 100 |
| CC(=O)Nc1nc2ccc(-c3nn(Cc4cc5cccc(Cl)c5c(=O)n4C(C)C)c4ncnc(N)c34)cc2s1 [Compound 157] | < 100 |
| CC(=O)Nc1nc2ccc(-c3nn(Cc4cc5cccc(F)c5c(=O)n4C(C)C)c4ncnc(N)c34)cc2s1 [Compound 158] | < 100 |
| CC(=O)Nc1nc2ccc(-c3nn(Cc4cc5cccc(C)c5c(=O)n4C4CCC4)c4ncnc(N)c34)cc2s1 [Compound 159] | < 100 |
| Cc1ccccc1-n1c(Cn2nc(-c3cn[nH]c3)c3c(N)ncnc32)cc2cccc(C)c2c1=O [Compound 160] | < 100 |
| Cc1cccc2cc(Cn3nc(-c4cn[nH]c4)c4c(N)ncnc43)n(-c3ccccc3F)c(=O)c12 [Compound 161] | < 1000 |
| Cc1ccccc1-n1c(Cn2nc(-c3cnn(CCO)c3)c3c(N)ncnc32)cc2cccc(C)c2c1=O [Compound 163] | < 1000 |
| Cc1cccc2cc(Cn3nc(-c4cn[nH]c4)c4c(N)ncnc43)n(-c3cccc(F)c3)c(=O)c12 [Compound 166] | < 100 |
| Cc1cccc2cc(C(C)Nc3ncnc4[nH]cnc34)n(-c3ccccc3F)c(=O)c12 (stereo not shown) [Compound 167] | < 100 |
| CC(=O)Nc1nc2ccc(-c3nn(Cc4cc5ccccc5c(=O)n4-c4ccccc4C)c4ncnc(N)c34)cc2s1 [Compound 168] | < 100 |
| Cc1cccc2cc(Cn3nc(C#N)c4c(N)ncnc43)n(-c3ccccc3F)c(=O)c12 [Compound 169] | < 1000 |
| Cc1ccccc1-n1c(Cn2nc(C#N)c3c(N)ncnc32)cc2cccc(C)c2c1=O [Compound 170] | < 100 |
| Cc1cccc2cc(Cn3nc(/C=C4/SC(=O)NC4=O)c4c(N)ncnc43)n(-c3ccccc3F)c(=O)c12 [Compound 171] | < 100 |
| Cc1ccccc1-n1c(Cn2nc(/C=C3/SC(=O)NC3=O)c3c(N)ncnc32)cc2cccc(C)c2c1=O [Compound 173] | < 100 |
| Cc1ccccc1-n1c(Cn2nc(/C=C/C(N)=O)c3c(N)ncnc32)cc2cccc(C)c2c1=O [Compound 174] | < 100 |
| CCn1c(Cn2nc(-c3ccc4nc(NC(C)=O)sc4c3)c3c(N)ncnc32)cc2cccc(C)c2c1=O [Compound 176] | < 100 |
| CC(=O)Nc1nc2ccc(-c3nn(Cc4cc5cccc(C)c5c(=O)n4-c4ccccc4)c4ncnc(N)c34)cc2s1 [Compound 177] | < 100 |
| CC(=O)Nc1nc2ccc(-c3nn(Cc4cc5cccc(C)c5c(=O)n4-c4cccc(F)c4)c4ncnc(N)c34)cc2s1 [Compound 178] | < 100 |
| C=Cc1nn(Cc2cc3cccc(C)c3c(=O)n2-c2ccccc2C)c2ncnc(N)c12 [Compound 180] | < 100 |
